Results on 33 compounds are retold here after patent publication US8791132B2, “Compounds and methods for treatment of hypertension” (Medivation Technologies, Inc., priority 2011, dated 2014).

SMILES strings stand for the structures. pKi: −log10 of the molar value. Read-outs that look alike come from different tables or passages of the source.

Test [1] has as its target T1, human recombinant adrenergic α2A receptor (Homo sapiens, UniProt P08913).
T1 construct: expressed in transfected cells; host or cells: insect Sf9 cells
T1 sequence (P08913 1-465): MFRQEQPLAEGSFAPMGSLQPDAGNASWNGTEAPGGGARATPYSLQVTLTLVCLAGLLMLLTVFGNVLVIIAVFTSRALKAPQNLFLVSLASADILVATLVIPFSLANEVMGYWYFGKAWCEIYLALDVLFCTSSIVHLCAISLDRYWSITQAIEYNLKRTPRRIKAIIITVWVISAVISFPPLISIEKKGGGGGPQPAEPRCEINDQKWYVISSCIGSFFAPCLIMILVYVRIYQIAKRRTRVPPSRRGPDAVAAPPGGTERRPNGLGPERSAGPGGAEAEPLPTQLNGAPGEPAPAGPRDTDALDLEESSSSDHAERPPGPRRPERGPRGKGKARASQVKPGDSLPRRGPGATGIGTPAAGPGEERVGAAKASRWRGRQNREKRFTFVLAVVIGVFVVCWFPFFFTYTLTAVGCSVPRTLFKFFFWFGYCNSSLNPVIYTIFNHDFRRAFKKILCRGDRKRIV
The test is described as follows: Radioligand binding, adrenergic α2A ([3H]MK-912). Conditions: for Percentage inhibition of ligand binding, Adrenergic α2A / Percentage inhibition of ligand binding, Adrenergic α2A (0.1 μM): 0.1 µM; for Percentage inhibition of ligand binding, Adrenergic α2A (0.1 μM): compound at 0.1 μM. How it is done: To evaluate in radioligand binding assays the activity of compounds of the invention, human recombinant adrenergic α2A receptor expressed in insect Sf9 cells (Uhlen, S. et al, J. Pharmacol. Exp. Ther. 271:1558, 1994) in a modified Tris-HCl buffer (50 mM Tris-HCl, pH 7.4, 12.5 mM MgCl2, 2 mM EDTA) was used. Compounds of invention were incubated with 1 nM [^3H]MK-912 for 60 min at 25° C. MK912 is (2S-trans)-1,3,4,5′,6,6′,7,12b-octahydro-1′,3′-dimethyl-spiro[2H-benzofuro[2,3-a]quinolizine-2,4′(1′H)-pyrimidin]-2′(3′H)-one hydrochloride. Non-specific binding was estimated in the presence of 10 μM WB-4101 (2-(2,6-Dimethoxyphenoxyethyl)aminomethyl-1,4-benzodioxane hydrochloride). Receptor proteins were filtered and washed, the filters were then counted to determine [^3H]MK-912 specifically bound. […] Compounds of the invention were tested in this biochemical assay and percent inhibition of specific binding was determined. Biochemical assay results are presented as the percent inhibition of specific binding in Table B1.

In test [2] the target is T2, human recombinant adrenergic α2B receptor (Homo sapiens, UniProt P18089).
T2 construct: expressed in transfected cells; host or cells: CHO-K1
T2 sequence (P18089 1-450): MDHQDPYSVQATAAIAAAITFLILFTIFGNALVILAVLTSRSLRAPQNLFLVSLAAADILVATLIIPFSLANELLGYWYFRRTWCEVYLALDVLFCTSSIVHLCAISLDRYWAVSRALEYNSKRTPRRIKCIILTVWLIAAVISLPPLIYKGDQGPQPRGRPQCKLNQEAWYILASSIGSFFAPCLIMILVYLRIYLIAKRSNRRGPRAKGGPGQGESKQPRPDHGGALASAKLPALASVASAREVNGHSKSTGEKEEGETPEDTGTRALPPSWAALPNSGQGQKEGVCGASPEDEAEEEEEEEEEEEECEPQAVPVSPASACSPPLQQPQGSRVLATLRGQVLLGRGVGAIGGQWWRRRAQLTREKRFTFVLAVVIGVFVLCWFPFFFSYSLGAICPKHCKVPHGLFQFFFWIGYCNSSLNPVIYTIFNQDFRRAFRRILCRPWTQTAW
The test is described as follows: Radioligand binding, adrenergic α2B ([3H]Rauwolscine). Conditions: for Percentage inhibition of ligand binding, Adrenergic α2B: 0.03 μM compound; for Percentage inhibition of ligand binding, Adrenergic α2B / Percentage inhibition of ligand binding, Adrenergic α2B (0.03 μM): 0.03 µM; for Percentage inhibition of ligand binding, Adrenergic α2B (0.03 μM): compound at 0.03 μM; for pKi: read-out: Ki α2B; for inhibition at 0.03 µM: read-out: Percentage inhibition of ligand binding, Adrenergic α2B (0.03 μM), compound at 0.03 μM. How it is done: To evaluate in radioligand binding assays the activity of compounds of the invention, human recombinant adrenergic α2B receptor expressed in Chinese hamster ovary (CHO) K1 cells (Uhlen, S. et al, Eur. J. Pharmacol. 343(1):93, 1998) in a modified Tris-HCl buffer (50 mM Tris-HCl, pH 7.4, 12.5 mM MgCl2, 1 mM EDTA, 0.2% BSA) was used. Compounds of the invention were incubated with 2.5 nM [3H]Rauwolscine for 60 min at 25° C. Non-specific binding was estimated in the presence of 10 μM Prazosin. Receptor proteins were filtered and washed, the filters were then counted to determine [3H]Rauwolscine specifically bound. […] Compounds of the invention were tested in this biochemical assay and percent inhibition of specific binding was determined. Biochemical assay results are presented as the percent inhibition of specific binding in Table B1.

Setting [3] is: [3H]MK-912, repeat datapoints each shown.
Setting [4] is: 0.1 μM compound, read-out: Percentage inhibition of ligand binding, Adrenergic α2B.
[5] abbreviates: read-out: Percentage inhibition of ligand binding, Adrenergic α2A (0.1 μM), compound at 0.1 μM, [3H]MK-912, repeat datapoints each shown.
The mark [6] stands for this setting: read-out: Percentage inhibition of ligand binding, Adrenergic α2B (0.1 μM), compound at 0.1 μM, [3H]Rauwolscine, repeat datapoints each shown.
[7] abbreviates: [3H]Rauwolscine, repeat datapoints each shown.

`OCCN1CCc2c(c3cc(Cl)ccc3n2CC(O)c2ccncc2)C1` (stereo not drawn) [II-93b]: the “Percentage inhibition of ligand binding, Adrenergic α2A” value in test [1] (0.1 μM compound) is 4%. For the compound `Cc1ccc2c(c1)c1c(n2C(C)C(O)c2ccncc2)CCN(C)C1` (stereo not drawn) [II-98b], in test [2], the “Percentage inhibition of ligand binding, Adrenergic α2B” value amounted to 5%. Regarding `Cc1ccc2c(c1)c1c(n2CC(N)c2ccncc2)CC2CCC1N2C` (single isomer, unassigned) [155a], the “Percentage inhibition of ligand binding, Adrenergic α2A (0.1 μM)” value (“Percentage inhibition … (0.1 μM)” below) in test [1] (setting [3]) is recorded as −1%. Consider `C/C(=C\n1c2c(c3cc(C)ccc31)CN(C)CC2(C)C)c1ccncc1` [II-70], for which the inhibition at 0.1 µM in test [2] (setting [4]) amounted to 34%.

Turning to `CN1CCc2c(c3ccc(Cl)cc3n2CCc2ccccc2)C1` [compound 215], the inhibition at 0.1 µM in test [1] (setting [5]) turned out to be 97%; in test [2] (setting [6]) it was 102%. Take `FC(F)(F)c1ccc(CCn2c3c(c4cccnc42)CN2CCCC2C3)cn1` (stereo not drawn) [II-236]: the inhibition at 0.1 µM in test [2] (setting [6]) was -4%.

Take `Cc1cnc2c(c1)c1c(n2CCc2ccc(C(F)(F)F)nc2)CCN2CCCC12` (stereo not drawn) [II-238]: the inhibition at 0.1 µM in test [2] (setting [6]) came out at 98%.

As to `CN1CCc2c(c3cc(Cl)ccc3n2CCC2CCCCC2)C1` [compound 212], the results for the inhibition at 0.1 µM in test [1] (setting [5]) and in test [2] (setting [6]) were 66% and 64%, respectively.

`Cc1cnc2c(c1)c1c(n2CCc2ccc(C(F)(F)F)nc2)CC2CCCN2C1` (stereo not drawn) [II-239]: in test [2] (setting [6]), the inhibition at 0.1 µM was found to be 17%. In the case of `Cc1ccc(CCn2c3c(c4cccnc42)CN(C)CC3(C)C)cn1` [II-133], in test [2] (setting [6]), the inhibition at 0.1 µM is -5%.

For `CC(O)(Cn1c2c(c3cc(Cl)ccc31)CN(C1CCC1)CC2)c1cccnc1` (single isomer, unassigned) [II-118a], in test [1] (setting [5]), the inhibition at 0.1 µM was 3%. In test [2] (setting [7]), the “Percentage inhibition of ligand binding, Adrenergic α2B (0.03 μM)” value (“Percentage inhibition … (0.03 μM)” for short) was 27%. Turning to `Cc1ccc2c(c1)c1c(n2CCc2ccc(C(F)(F)F)nc2)C(C)(C)CN(C)C1` [II-40], the inhibition at 0.1 µM in test [2] (setting [4]) came out at 36%. With `Cc1ccc2c(c1)c1c(n2CC(C)(O)c2cccnc2)CCN(C)C1C` (single isomer, unassigned) [II-152a], the “Percentage inhibition … (0.03 μM)” value in test [2] (setting [7]) was determined as 93%. For `CN1CCc2c(c3cc(C(F)(F)F)ccc3n2CCc2ccccc2)C1` [compound 209], the inhibition at 0.1 µM is 80% in test [1] (setting [5]) and 84% in test [2] (setting [6]). Regarding `Cc1ccc2c(c1)c1c(n2C(C)C(O)c2ccncc2)CCN(C)C1` (single isomer, unassigned) [127a], in test [2], the pKi was 7.82. In addition, the inhibition at 0.03 µM in test [2] (setting [7]) was 43%. The inhibition at 0.1 µM in test [2] (setting [6]) was 74%. `C/C(=C\n1c2c(c3cc(C)ccc31)CN(C)CC2)c1cnccc1C` [II-76, (E)-2,8-dimethyl-5-(2-(4-methylpyridin-3-yl)prop-1-en-1-yl)-2,3,4,5-tetrahydro-1H-pyrido[4,3-b]indole]: the inhibition at 0.1 µM in test [2] (setting [4]) amounted to 103%. Regarding `Cc1cnc2c(c1)c1c(n2CC(O)c2ccc(F)cc2)CCN(C)C1` (single isomer, unassigned) [136b], in test [1] (setting [3]), the “Percentage inhibition … (0.1 μM)” value is 21%. Further, the “Percentage inhibition … (0.03 μM)” value in test [2] (setting [7]) is 69%.

As to `C/C(=C\n1c2c(c3cc(C)ccc31)C1CCCN1CC2)c1ccc(C)nc1` (stereo not drawn) [193a, 10-methyl-7-(2-(6-methylpyridin-3-yl)prop-1-enyl)-2,3,5,6,7,11c-hexahydro-1H-indolizino[7,8-b]indole], the inhibition at 0.03 µM in test [2] (setting [7]) was determined as 98%. For the compound `FC(F)(F)c1ccc(CCn2c3c(c4cccnc42)C2CCCN2CC3)cn1` (stereo not drawn) [IV-2], the inhibition at 0.1 µM in test [2] (setting [6]) is 50%.

Take `Cc1ccc2c(c1)c1c(n2CC(N=[N+]=[N-])c2ccncc2)CCN(C)C1` (racemic) [V-1, 5-(2-azido-2-(pyridin-4-yl)ethyl)-2,3,4,5-tetrahydro-2,8-dimethyl-1H-pyrido[4,3-b]indole]: the inhibition at 0.1 µM in test [1] (setting [5]) is 35%. Besides, the pKi in test [2] is 9.29. The inhibition at 0.03 µM in test [2] (setting [7]) was found to be 102%. Consider `OCCN1CCc2c(c3cc(Cl)ccc3n2CC(O)c2cccnc2)C1` (single isomer, unassigned) [II-94a], for which, in test [1] (0.1 μM compound), the “Percentage inhibition of ligand binding, Adrenergic α2A” value stood at 0%. The “Percentage inhibition of ligand binding, Adrenergic α2B” value in test [2] was found to be 8%.

Regarding `Cc1ccc2c(c1)c1c(n2CC(c2ccncc2)N2CCCC2)CCN(C)C1` (single isomer, unassigned) [152a], in test [1] (setting [5]), the inhibition at 0.1 µM came out at 17%. For the compound `CN1CCc2c(n(CC(O)c3ccc(F)c(F)c3)c3ccc(Cl)cc23)CC1` (single isomer, unassigned) [339b], the “Percentage inhibition of ligand binding, Adrenergic α2A” value in test [1] (0.1 μM compound) was 64%. Turning to `C/C(=C\n1c2c(c3cc(C)ccc31)C1CCCCN1CC2)c1ccc(F)cc1` (single isomer, unassigned) [199b], the “Percentage inhibition … (0.1 μM)” value in test [1] (setting [3]) turned out to be 61%. The “Percentage inhibition … (0.03 μM)” value in test [2] (setting [7]) is given as 27%. In the case of `Cc1ccc2c(c1)c1c(n2CC(O)c2ccc(C#N)cc2)CCN(C)C1` (single isomer, unassigned) [142b], in test [1] (setting [3]), the “Percentage inhibition … (0.1 μM)” value is recorded as 63%. Turning to `Cc1ccc(CCn2c3c(c4cc(C(F)(F)F)ccc42)CN(C)CC3)cc1` [compound 210], the inhibition at 0.1 µM in test [1] (setting [5]) came to 88%; in test [2] (setting [6]), 63%. As for `C/C(=C\n1c2c(c3cc(C)ccc31)CN(C)CC2(C)C)c1ccc(C)nc1` [II-61], the inhibition at 0.1 µM in test [2] (setting [4]) came to 47%. For the compound `Cc1ccc2c(c1)c1c(n2CCC2CCCCC2)CCN(C)C1` [compound 205], the inhibition at 0.1 µM in test [1] (setting [5]) was 69%; in test [2] (setting [6]), 70%.

For the compound `Cc1cnc2c(c1)c1c(n2CC(C)(O)c2ccc(C)nc2)CCN2CCCC12` (single isomer, unassigned) [148d], the “Percentage inhibition … (0.1 μM)” value in test [1] (setting [3]) is −11%. For the same compound, the “Percentage inhibition … (0.03 μM)” value in test [2] (setting [7]) was determined as 11%. With `C/C(=C\n1c2c(c3cc(C)ccc31)C1CCCCN1CC2)c1ccc(F)cc1` (single isomer, unassigned) [199a], the “Percentage inhibition … (0.1 μM)” value in test [1] (setting [3]) stood at 96%. Further, the “Percentage inhibition … (0.03 μM)” value in test [2] (setting [7]) is reported as 94%. On to `Cc1ccc2c(c1)c1c(n2CCc2ccccc2F)CCN(C)C1` [compound 204], for which the pKi in test [1] was 8.61. Further, the inhibition at 0.1 µM in test [1] (setting [5]) amounted to 87%; in test [2] (setting [6]), 107%. On to `Cc1cnc2c(c1)c1c(n2CC(O)c2ccc(C)nc2)CCN(C)C1` (single isomer, unassigned) [II-100a], for which the inhibition at 0.1 µM in test [1] (0.1 μM compound, read-out: Percentage inhibition of ligand binding, Adrenergic α2A) is 7%. Also, the “Percentage inhibition of ligand binding, Adrenergic α2B” value in test [2] is reported as 12%. With `CN1Cc2c(n(CCc3ccc(C(F)(F)F)nc3)c3ncccc23)C(C)(C)C1` [II-215], the inhibition at 0.1 µM in test [2] (setting [6]) was -5%.
